Measurements as given in patent US8815799B2, “Inhibiting striated muscle activator of RHO (stars) to improve glycemic control” (Joslin Diabetes Center, Inc., priority 2010, dated 2014).
Entries after “also recorded” stand apart in the source; their conditions may differ.

What was measured:
C2C12 myotubes = assay: Deoxyglucose uptake in cultured myotubes (FIG. 11E); assay type: cell-based
From the text: (§1) Since CCG-1423 increased insulin signalling in myotubes, we hypothesized that CCG-1423 might also enhance glucose uptake. In DMSO (vehicle)-treated myotubes, insulin stimulated a 2-fold increase in deoxyglucose uptake in a dose-dependent manner, consistent with prior reports and the low insulin responsiveness in cultured myotubes (FIG. 11E). […] In parallel, expression of the dominant glucose transporters GLUT4 and GLUT1 was increased by CCG-1423 treatment by 4.1 and 2.5 fold, respectively (p<0.004).
(§2) To determine whether increased expression of STARS can modulate glucose uptake, basal and insulin-stimulated glucose uptake in are measured in L6 myotubes overexpressing STARS (day 6 of differentiation). In brief, following overnight serum starvation, myotubes are treated with insulin (0 to 100 nM) for 20 minutes and then incubated with transport solution (140 mM NaCl, 20 mM Hepes, 5 mM KCl, 2.5 mM MgSO4, 1.0 mM CaCl2, 10 μM 2-deoxyglucose, 0.5 μCi/mL [^3H]-2-deoxyglucose) for 10 minutes. Cells are lysed in 0.05N NaOH and radioactivity determined by scintillation counting. All assays are performed in quadruplicate and corrected by uptake in cytochalasin-treated wells. Glucose transport assays are also performed in STARS-Myc-GLUT4 cells, given their higher insulin responsiveness.

[1] = CCG-1423 treatment of high-fat diet-fed mice (glucose tolerance, insulin, body weight); assay type: in vivo
Method: (§3) To examine the therapeutic potential of this SRF inhibitor in vivo, we assessed responses to CCG-1423 treatment in mice with diet-induced obesity. […] The HFD mice were administered CCG-1423 (0.15 mg/kg body weight intraperitoneally) for two weeks.
In parallel, the high insulin levels associated with insulin resistance were normalized by CCG-1423 treatment (FIG. 13C).
To test this hypothesis, mice are treated with CCG-1423 in 2 models of murine insulin resistance: (1) high-fat diet-fed C57BL/6J mice (60% of calories from fat), or (2) genetically obese ob/ob mice. For these studies, mice are injected with CCG-1423 0.15 mg/kg/day or vehicle (DMSO), intraperitoneally, for 2 weeks. Body weight and food intake are monitored daily.

GLUT4 = GLUT4 expression in myotubes; assay type: cell-based; settings: myotubes treated with CCG-1423
From the text: as §1
(§4) To address whether STARS and MKL1-dependent SRF transcriptional activity contribute to the pathophysiology of insulin resistance, experiments were performed to test whether modulation of STARS expression and/or SRF activation can improve key cellular phenotypes associated with insulin resistance, including insulin action and glucose uptake. L6 myotubes stably expressing Myc-GLUT4 were infected with an adenovirus containing a short hairpin targeting STARS, resulting in a 54% reduction in STARS protein expression; this was associated with a 3.7-fold increase in basal glucose uptake and a 3.6-fold increase in insulin-stimulated glucose uptake (FIG. 19A).

[2] = test system: SRF, ELK1, SRF targets (ZYX, PDLIM7); assay: Gene expression in skeletal muscle of HFD mice treated with CCG-1423; assay type: in vivo
Method: as §3

GLUT1 = GLUT1 expression in myotubes; assay type: cell-based; settings: myotubes treated with CCG-1423
From the text: as §1, §4

Akt = Akt phosphorylation (phosphoimmunoblot) in C2C12 myotubes; assay type: cell-based; settings: for increase in insulin-stimulated Akt phosphorylation: C2C12 myotubes, overnight 1 μM CCG-1423
Method: The next experiments were performed to determine whether SRF transcriptional activity, rather than expression of SRF itself, is important for maintaining appropriate insulin sensitivity. A new compound, CCG-1423, is available for specifically inhibiting SRF transcriptional activity (Evelyn et al., Mol. Cancer Ther. 6:2249-2260 (2007)). […] CCG-1423 was then evaluated to test the possibility that reducing SRF transcriptional activity improves insulin sensitivity. Indeed, this is the case.
(§5) In parallel, CCG-1423 enhanced insulin action in C2C12 myotubes. Overnight treatment with 1 μM CCG-1423 increased insulin-stimulated Akt phosphorylation, both in the presence and absence of dexamethasone (41% for both, p=0.01 and p=0.007, respectively), while having no effect on p42/44 ERK phosphorylation (FIG. 11C).

L6 myotubes = assay: 2-deoxyglucose uptake in L6 myotubes (FIG. 11E legend); assay type: cell-based; settings: CCG-1423 1 μM, 16 hours
Method: FIG. 11E is a line graph showing that both basal and insulin-stimulated 2-deoxyglucose uptake are increased by >4-fold in L6 myotubes following CCG-1423, with enhanced insulin sensitivity (1 μM, 16 hours). * indicates p<0.05, **p<0.01,***p<0.001.
as §2

human myotubes = assay: Basal glucose uptake in human myotubes from control and diabetic subjects; assay type: cell-based
Method: The effects of CCG-1423 on human myotubes, and whether these effects would differ in myotubes derived from controls (n=2) vs. diabetic subjects (n=6), were also evaluated. […] The differential responsiveness in subjects with DM supports the concept that SRF pathways are more robustly activated in humans with insulin resistance and DM, and therefore potentially more sensitive to SRF inhibition.

Myc-GLUT4 L6 myotubes = assay: Glucose uptake in Myc-GLUT4 L6 myotubes; assay type: cell-based
Method: as §2, §4
To test the effect of reduced STARS expression (shRNA) and reduced SRF pathway activation (chemical inhibitor CCG-1423) in cultured myotubes, knock-down assays were performed. shSTARS target sequences (Forward 5′-[…] […] A-3′ (SEQ ID NO:1); Reverse 5′-[…] […] […]-3′ (SEQ ID NO:2)), or scrambled control (IDT RNA design), were cloned into pAdTrack-CMV adenoviral vector, and Myc-GLUT4 L6 myotubes were infected with amplified adenovirus (8×10^7 pfu/well, 6-well plate) at 3 days after differentiation. […] Thus, experimental reductions in STARS expression are associated with an increase insulin signaling and basal glucose uptake in cultured myotubes.
Since genetic knockdown of STARS expression enhanced glucose transport, a key question is whether pharmacologic inhibition of SRF transcriptional activity would similarly modulate glucose transport. Studies with CCG-1423, an SRF transcriptional inhibitor identified by compound library screening, were performed. […] By comparison, insulin stimulated glucose uptake by 1.6-fold (p<0.01; FIG. 20).

MKL1 = MKL1 cellular localization in C2C12 myoblasts; assay type: cell-based
Method: Since MKL1 is known to shuttle between the cytosol and nucleus to modulate target gene expression (Vartiainen et al., Science. 316:1749-1752 (2007)), the possibility arises that MKL1 localization may differ in insulin resistant state as compared to the normal state. […] In the basal state, MKL1 predominantly localized to cytosol and partially in nucleus. After 30 minutes of serum stimulation, MKL1 translocated to the […]. […] To determine whether MKL1 and G actin complex formation is changed in insulin resistance, the nuclear and cytosolic fractions from C2C12 myotubes were co-immunoprecipitated with MKL1 and blotted with beta actin.
To determine if the effects of CCG-1423 on SRF activity were mediated via MKL1 localization, MKL1 localization was assessed in C2C12 myoblasts treated with CCG-1423.

[3] = test system: SRF transcriptional activity; assay: SRF transcriptional activity, 4x CArG (SRE) promoter luciferase reporter in C2C12 cells; assay type: cell-based; settings: activity induced by serum, dexamethasone or insulin, CCG-1423 1 μM, 16 hours pre-treatment (FIG. 10, 11B)
Method: FIG. 11B is a bar graph showing the effect of CCG on SRF transcriptional activity. 4× CArG promoter is activated in response to serum stimulation (FBS 2 hours, control) and following overnight treatment with 100 μM dexamethasone (DEX) in C2C12 myoblasts. This SRF-mediated transcriptional activity was blocked by pre-treatment with CCG-1423 (1 μM, 16 hours).
To determine whether SRF transcriptional activity is also changed in insulin resistance, 4× tandem repeat of SRF binding element (SRE) CArG boxes (Kuwahara et al., Mol. Cell Biol. 25:3173-3181 (2005)) promoters linked to a luciferase gene were used as a reporter. […] These increases in SRF transcriptional activity in insulin resistant states could cause up-regulation of SRF target gene expression.

IRS-1 = IRS-1 tyrosine phosphorylation and association with p85 PI 3-kinase in myotubes; assay type: cell-based
Method: FIG. 11D is a phosphoimmunoblot showing that CCG-1423 increases basal and insulin-stimulated tyrosine phosphorylation of IRS-1 and its association with p85-PI 3-kinase, in both control and DEX-treated myotubes. * indicates p<0.05, **p<0.01, ***p<0.001.
as §5

p42/44 ERK = p42/44 ERK phosphorylation in C2C12 myotubes; assay type: cell-based; settings: overnight 1 μM CCG-1423 (FIG. 11C)
Method: as §5

STARS = STARS expression in C2C12 myotubes after actin disruption; assay type: cell-based; settings: disruption of actin
From the text: Additional pathway analysis using MAPPFinder confirmed that serum response factor (SRF)-dependent and actin-related cytoskeleton gene expression is increased in diabetes, and more importantly, also in insulin resistance. The top-ranking single gene differentially expressed in skeletal muscle in the fasting state is the Actin-binding Rho activating protein (ABRA), or STARS, increased by 2.5 fold in individuals with type 2 diabetes (p<0.01). This gene regulates intracellular actin dynamics and subcellular localization of MKL1/2, thus contributing to SRF-dependent gene transcription. Since disruption of actin by latrunculin B increases STARS expression in C2C12 cells by 50% in C2C12 myotubes (p<0.03, not shown), it was hypothesize that increased STARS expression in DM may reflect disruption of actin dynamics and also contribute to the pattern of increased SRF-related gene expression. Similar patterns of SRF-dependent expression are also observed in adipose tissue from insulin resistant subjects and in insulin resistant muscle.

[4] = HFD mice, CCG-1423 0.15 mg/kg intraperitoneally, two weeks, vs vehicle-treated HFD mice, 0.15 mg/kg
[5] = CCG-1423 0.15 mg/kg intraperitoneally, two weeks
[6] = control and DEX-treated myotubes (FIG. 11D)

## CC(ONC(=O)c1cc(C(F)(F)F)cc(C(F)(F)F)c1)C(=O)Nc1ccc(Cl)cc1 (stereo not shown) [CCG-1423]
C2C12 myotubes; myotubes incubated with CCG-1423 (FIG. 11E)
  increase in glucose uptake, basal state: 4 fold
C2C12 myotubes; myotubes incubated with CCG-1423, 1 μM insulin (FIG. 11E)
  insulin-stimulated glucose uptake response: 11.5 fold
[1]; HFD mice, 15 minutes after glucose injection, vs vehicle-treated HFD animals
  serum insulin levels during glucose tolerance test: normalized; also recorded: significantly reduced
[1]; [4]
  body weight: No significant change; also recorded: no differences; also recorded: not altered
  food intake: No significant change; also recorded: no differences
  in vivo glucose tolerance (intraperitoneal glucose tolerance test): significantly improved; also recorded: improves glucose tolerance; also recorded: improved in vivo glucose tolerance
[1]; HFD mice, CCG-1423 two weeks
  adiponectin levels: No differences
  circulating fatty acid levels: No differences
  insulin tolerance testing: No differences
[1]; HFD mice, CCG-1423 two weeks, vs vehicle-treated HFD animals
  glucose tolerance test area under the curve (AUC): significantly reduced
[1]; HFD-fed mice, CCG-1423 0.15 mg/kg/day intraperitoneally, 2 weeks, vs HFD-fed mice
  reduction of fed insulin levels: 50%
GLUT4
  increase in GLUT4 expression: 4.1 fold
[2]; [5]
  expression of ELK1: did not alter
  expression of SRF: did not alter
[2]; CCG-1423 two weeks, vs vehicle-injected controls
  expression of SRF targets in skeletal muscle, e.g., ZYX and PDLIM7: significantly decreased
GLUT1
  increase in GLUT1 expression: 2.5 fold
Akt; absence of dexamethasone
  increase in insulin-stimulated Akt phosphorylation: 41%
Akt; presence of dexamethasone
  increase in insulin-stimulated Akt phosphorylation: 41%
Akt; myotubes, with or without dexamethasone, insulin 100 nM, 10 minutes (FIG. 11A, 11C)
  insulin-stimulated Akt phosphorylation (marker of insulin sensitivity): increased insulin-simulated Akt phosphorylation; also recorded: improves insulin-stimulated Akt phosphorylation; also recorded: increases insulin-stimulated Akt phosphorylation
L6 myotubes
  increase in basal and insulin-stimulated 2-deoxyglucose uptake: > 4 fold
Human myotubes; human myotubes from control subjects (n=2)
  basal increase in glucose uptake, mean: 1.2 fold
Human myotubes; human myotubes from diabetic subjects (n=6)
  basal increase in glucose uptake, mean: 3.2 fold
Myc-GLUT4 L6 myotubes; Myc-GLUT4 L6 myotubes (FIG. 19A, FIG. 20)
  basal and insulin-stimulated glucose uptake (figure legend): increases basal and insulin-stimulated 2-deoxyglucose uptake
Myc-GLUT4 L6 myotubes; Myc-GLUT4 L6 myotubes, CCG-1423 1 μM, 16 hours
  increase in basal glucose uptake: 1.9 fold
Myc-GLUT4 L6 myotubes; Myc-GLUT4 L6 myotubes, combination of CCG-1423 and insulin
  increase in glucose uptake, combination with insulin: 2.6 fold
MKL1
  MKL1 cytosol/nuclear localization: almost exclusively localized to the cytoplasm; also recorded: reversed dexamethasone-induced MKL1 nuclear localization to partial cytoplasmic localization; also recorded: inhibition of MKL1 nuclear localization; also recorded: reduced nuclear translocation of MKL1
[3]
  inhibition of SRF transcriptional activity / SRE promoter activity: specifically blocks SRF transcriptional activity; also recorded: reduced SRE promoter activity and efficiently blocked both serum- and dexamethasone-stimulated activation; also recorded: reduces SRE promoter activity; also recorded: inhibits SRF activity
IRS-1; [6]
  association of IRS-1 with p85 regulatory subunit of PI 3-kinase: increases
  basal and insulin-stimulated tyrosine phosphorylation of IRS-1: increases
IRS-1; myotubes treated with CCG-1423
  p85 expression: without altering
p42/44 ERK
  p42/44 ERK phosphorylation: no effect; also recorded: minimal change

## C/C1=C/C(=O)O[C@@H]2C[C@@H](CC[C@H](C)/C=C\CC1)O[C@@](O)([C@@H]1CSC(=O)N1)C2 [latrunculin B]
STARS
  increase in STARS expression: 50%

## insulin
C2C12 myotubes; DMSO (vehicle)-treated myotubes, dose-dependent
  insulin-stimulated increase in deoxyglucose uptake: 2 fold
Myc-GLUT4 L6 myotubes; Myc-GLUT4 L6 myotubes, insulin alone (FIG. 20)
  insulin-stimulated glucose uptake: 1.6 fold
